{
  "source": "paper PMC8282797",
  "about": "“Strictly regulated agonist-dependent activation of AMPA-R is the key characteristic of TAK-653 for robust synaptic responses and cognitive improvement” (Scientific Reports, 2021)",
  "system": "BDNF and Gadd45b mRNA",
  "assay": "AMPA-induced BDNF and Gadd45b mRNA after 14 days of dosing",
  "format": "in vivo, mouse",
  "conditions": "pre-administration 0.3 mg/kg, p.o. for 14 days",
  "experimental": "Male ICR mice at 7 weeks old were treated with orally administered vehicle or TAK-653. For the repeated dose study, TAK-653 (0.3 mg/kg, p.o.) or vehicle was administered for 14 days. AMPA at designated doses was intravenously (i.v.) administered 1 h after oral administration. Three hours after i.v. administration of AMPA, right hippocampi were isolated from the mice by euthanasia and acutely frozen on dry ice. Total RNA from mouse hippocampus was extracted with RNeasy 96 kit (Qiagen, Hilden, Germany). Reverse transcription of total RNA was performed using the High-capacity cDNA Archive kit (Life Technologies, Carlsbad, CA). Real-time quantitative PCR was carried out using an ABI PRISM 7900HT sequence detection system (Life Technologies) using PCR reagents (Nippon Gene Co. Limited, Toyama, Japan). Primers used for BDNF analyses were as follows: BDNF forward primer, 5’-[…]-3’; BDNF reverse primer, 5’-[…]-3’; BDNF TaqMan probe, 5’-FAM- […]-TAMRA-3’. Primers used for Gadd45b analyses were as follows: Gadd45b forward primer, 5’-[…]-3’; Gadd45b reverse primer, 5’-GCGCCAGCCTCTGCAT-3’; Gadd45b TaqMan probe, 5’'-FAM-[…]-MGB-3’. […] Concentrations of GAPDH mRNA were used for internal controls and relative BDNF or Gadd45b mRNA/GAPDH mRNA levels were calculated.",
  "data": [
    {"compound": "CC1=CN2CCS(=O)(=O)N=C2C(c2ccc(OC3CCCCC3)cc2)=N1", "note": "[TAK-653, 9-[4-(Cyclohexyloxy)phenyl]-7-methyl-3,4-dihydropyrazino[2,1-c][1,2,4]thiadiazine 2,2-dioxide]", "values": [
      {"measurement": "AMPA-induced BDNF and Gadd45b mRNA expression in hippocampus", "result": "did not affect"}
    ]}
  ]
}
